# Measurements published in patent US8653285B2 (Nippon Zoki Pharmaceutical Co., Ltd., priority 2008, dated 2014).
# Structures can show the parent of a compound that is named as a salt. Where two headings read alike, the source gives them in different places.
# Assays:
# cerebral H1 receptor = target: T1, cerebral H1 receptor (Mus musculus, UniProt P70174); assay: Murine cerebral H1 receptor occupying content (ex vivo, 3H-pyrilamine binding in brain homogenate after oral administration)
# T1 construct: The excised brain tissue was homogenized with Polytron (Kinematica); from tissue; host or cells: ICR mouse brain (entire brain except cerebellum and medulla oblongata), homogenate
# Protocol: A 6-week-old ICR male mouse was previously fed for one week or more by allowing the mouse to take a solid feed and tap water ad libitum, under the environment setting of a temperature of 22° C., humidity of 55% and an artificial illumination of 12 hours a day, and the mouse was fasted overnight to be used for the experiment. A substance to be tested was dissolved with water for injection or suspended in 0.5% carboxymethyl cellulose solution, and the solution or suspension was orally administered to the mouse (dose volume: 0.1 mL/10 g body weight). After 1 hour from the oral administration, the mouse was decapitated, and the entire brain, except for cerebellum and medulla oblongatae, was rapidly excised. The excised brain tissue was homogenized with Polytron (Kinematica) in an ice-cooled 50 mmol/L phosphate buffered saline (pH 7.4, 100 mg/1.9 mL).
# To a test tube for reaction (TPX-Tube) were added 180 μL of the brain homogenate, and 10 μL of ^3H-pyrilamine solution (final concentration: 2 nmol/L) and 10 μL of a non-labeled pyrilamine solution (final concentration: 200 μmol/L) or a 50 mmol/L phosphate buffered saline, and the mixture was incubated at room temperature for 45 minutes, and 2.0 mL of an ice-cooled, 50 mmol/L phosphate buffered saline was then added thereto to stop the reaction. The reaction mixture was filtered with a GF/B filter ([…]), and the filtrate was placed in a vial and dried overnight at 60 degrees. After drying, 10 mL of a scintillator (AL-1, toluene-based, DOJINDO LABORATORIES) was added to the product, and the disintegration per minute (dpm) was measured with a liquid scintillation counter (Packard, U.S.A., TRI-CARB 2700TR) (5 minutes/vial).
# [1] = target: human histamine H1 receptor (Homo sapiens, UniProt P35367); assay: In vitro human histamine H1 receptor binding experiment ([3H]pyrilamine, HEK293A cells stably expressing the receptor); settings: [3H]pyrilamine 3 nmol/L, room temperature 60 minutes
# Protocol: Recombinant human histamine H1 receptor plasmid (prepared by Invitrogen) was transfected to HEK293A cells with Lipofectamine 2000 (Invitrogen). Cells stably expressing human histamine H1 receptor were screened with Geneticin (Invitrogen). The cells were continued to be cultured using a Dulbecco's Modified Eagle Medium containing 10% fetal bovine serum, 0.1 mmol/L MEM Non-Essential Amino Acids Solution, 2 mmol/L L-glutamine and 0.7 mg/mL Geneticin in a 5% CO2 incubator at 37° C. The cells stably expressing human histamine H1 receptor were prepared using 50 mmol/L Tris-HCl (pH 7.5) (hereinafter referred to as buffer) containing 0.1% bovine serum albumin, so as to have a concentration of 3×10^6 cells/mL, to give a cell sample preparation. Fifty microliters of the buffer, 50 μL of a test substance solution at various concentrations, and 50 μL of [^3H]pyrilamine solution (final concentration: 3 nmol/L) were added to each of the wells on the 96-well plate, and stirred, and 100 μL of the cell sample preparation was then added thereto (at a concentration of 3×10^5 cells/well) to initiate the reaction.
# The cells were incubated at room temperature for 60 minutes, and then filtered on UniFilter GF/C plate (Packard) immersed in 0.5% polyethyleneimine using a cell harvester (IH-110, INNOTECH CORPORATION), to stop the reaction, and the plate was washed with the buffer. The plate after washing was sufficiently dried, and 20 μL of a scintillator (MaxiLight, manufactured by Hidex) was added thereto, and count per minute (cpm) was measured with a multi-labeled microplate reader (Plate Chameleo II, Hidex). The nonspecific binding was cpm in a case where 30 μmol/L pyrilamine was added. The experiments were carried out at n=3, and at least repeated 3 times.
# [2] = test system: histamine-induced vascular hyperpermeability; assay: Rat histamine-induced vascular hyperpermeability reaction (in vivo antihistamine action); settings: SD male rat, oral administration, histamine injected intracutaneously 1 hour after administration, leaked Evans Blue; read-out: ED50
# Protocol: An SD male rat (SPF) of 180 g in weight was previously fed for one week or more by allowing the rat to take a solid feed and tap water ad libitum, under the environment setting of a temperature of 22° C., humidity of 55% and an artificial illumination of 12 hours a day (light phase 8 am to 8 pm), and the rat was fasted overnight to be used for the experiment. Histamine.dihydrochloride (hereinafter referred to as histamine) and Evans Blue were used by dissolving each in physiological saline upon use. A substance to be tested was dissolved in water for injection or suspended in 0.5% carboxymethyl cellulose sodium, and the rat was orally administered with the solution or suspension (dose volume: 5 mL/kg body weight). After 1 hour from the administration, the physiological saline and the histamine solution were each intracutaneously injected to two locations (20 μg/0.05 ml/location) each on a back part of the rat of which hair was sheared with an electric clipper while anesthetizing with an ether. A 0.5% Evans Blue-containing physiological saline was injected into the tail vein of the rat (1 mL/200 g body weight) immediately before the intracutaneous injection of the histamine.
# After 30 minutes, the animal was decapitated, and exsanguinated, and the skin was removed to measure an amount of leaked pigment in the blue-stained portion. The measurement of the amount of leaked pigment was carried out as follows. Skins of the pigment leaking site were cut out at two locations, 1 mL of a 2 mol/L aqueous potassium hydroxide solution was added thereto in a test tube, and the test tube was allowed to stand overnight at 37° C. to dissolve. Thereafter, 6 mL of a 1:3 mixed solution of 0.67 mol/L phosphoric acid and acetone was added to the solution, and the mixture was vigorously shaken for 10 minutes. Thereafter, the mixture was filtered, and the absorbance of the filtrate at 620 nm was measured. The absorbance obtained from the two locations of the sites injected with physiological saline, as blank value, was used for a compensation. The amount of leaked pigment was calculated from the calibration curve of Evans Blue at 620 nm.
# [3] = ICR male mouse, oral administration, brain excised after 1 hour, larger ID50 = lower brain transfer, read-out: ID50 (the source's name)
# T1 sequence (P70174 whole entry): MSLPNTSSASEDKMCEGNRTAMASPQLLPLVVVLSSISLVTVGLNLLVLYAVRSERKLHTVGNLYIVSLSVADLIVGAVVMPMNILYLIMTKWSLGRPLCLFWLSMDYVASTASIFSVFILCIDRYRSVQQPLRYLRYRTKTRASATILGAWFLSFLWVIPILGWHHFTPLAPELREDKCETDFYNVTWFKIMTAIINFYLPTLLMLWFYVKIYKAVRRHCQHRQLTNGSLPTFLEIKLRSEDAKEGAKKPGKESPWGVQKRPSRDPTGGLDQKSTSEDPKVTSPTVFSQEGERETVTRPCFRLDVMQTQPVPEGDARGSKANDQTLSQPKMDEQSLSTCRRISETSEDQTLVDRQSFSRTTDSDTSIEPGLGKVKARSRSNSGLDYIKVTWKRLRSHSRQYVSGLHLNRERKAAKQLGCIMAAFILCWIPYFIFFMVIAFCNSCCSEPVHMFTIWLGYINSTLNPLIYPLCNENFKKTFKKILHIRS
# Chain of human histamine H1 receptor (P35367 whole entry): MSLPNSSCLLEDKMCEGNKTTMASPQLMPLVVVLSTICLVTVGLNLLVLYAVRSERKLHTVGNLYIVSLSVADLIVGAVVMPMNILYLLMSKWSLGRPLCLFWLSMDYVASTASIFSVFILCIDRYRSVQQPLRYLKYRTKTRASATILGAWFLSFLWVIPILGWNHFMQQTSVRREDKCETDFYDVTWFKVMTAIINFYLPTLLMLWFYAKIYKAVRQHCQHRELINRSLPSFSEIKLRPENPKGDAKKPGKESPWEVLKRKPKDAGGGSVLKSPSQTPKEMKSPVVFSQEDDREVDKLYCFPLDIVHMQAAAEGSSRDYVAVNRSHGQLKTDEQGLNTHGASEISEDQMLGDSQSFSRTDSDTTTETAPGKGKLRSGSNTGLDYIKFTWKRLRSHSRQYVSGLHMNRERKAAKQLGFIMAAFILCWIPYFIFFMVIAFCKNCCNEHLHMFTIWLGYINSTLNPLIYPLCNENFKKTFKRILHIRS
Compound,ED50 (cerebral H1 receptor; [3]) [mg/kg],IC50 [1] [nM],ED50 [2] [mg/kg],"ED50 (cerebral H1 receptor; mouse, po, 1 h, read-out: ID50) [mg/kg]"
"CN(C)CC/C=C1/c2cc(CC(=O)O)ccc2OCc2sccc21 [Compound 28, (Z)-[4-(3-Dimethylaminopropylidene)-4,10-dihydro-9-oxa-1-thiabenzo[f]azulen-6-yl]acetic acid]",5.85,43.4,< 0.1,–
"CN(C)CC/C=C1/c2cc(CCC(=O)O)ccc2OCc2sccc21.Cl [Compound 57, (Z)-3-[4-(3-Dimethylaminopropylidene)-4,10-dihydro-9-oxa-1-thiabenzo[f]azulen-6-yl]propionic acid hydrochloride]",–,56.3,~0.1,> 80
"O=C(O)CCc1ccc2c(c1)/C(=C/CCN1CCCC1)c1ccsc1CO2 [Compound 59, (Z)-3-{4-[3-(Pyrrolidin-1-yl)propylidene]-4,10-dihydro-9-oxa-1-thiabenzo[f]azulen-6-yl}propionic acid]",> 200,36,~0.3,–
"O=C(O)Cc1ccc2c(c1)/C(=C\CCN1CCCC1)c1sccc1CO2 [Compound 26, (E)-{4-[3-(Pyrrolidin-1-yl)propylidene]-4,10-dihydro-9-oxa-3-thiabenzo[f]azulen-6-yl}acetic acid]",80.9,19.2,0.156,–
"Cl.O=C(O)Cc1ccc2c(c1)/C(=C/CCN1CCCC1)c1sccc1CO2 [Compound 71, (Z)-{4-[3-(Pyrrolidin-1-yl)propylidene]-4,10-dihydro-9-oxa-3-thiabenzo[f]azulen-6-yl}acetic acid hydrochloride]",–,63.4,0.83,> 80
CCN(C)CC/C=C1\c2cc(CC(=O)O)ccc2OCc2ccsc21 [Compound 30],–,57.6,~0.3,95
"CCOC(=O)C(C)(C)c1cc2c(s1)C(=O)Cc1ccccc1C2=CCCN(C)C [Compound 24, Ethyl (E,Z)-2-[4-(3-dimethylaminopropylidene)-10-oxo-9,10-dihydro-4H-1-thiabenzo[f]azulen-2-yl]-2-methylpropionate hydrochloride]",174,13.2,~1,–
"CN(C)CCC=C1c2cc(C(C)(C)C(=O)O)ccc2OCc2ccsc21 [Compound 22, (E,Z)-2-[4-(3-Dimethylaminopropylidene)-4,10-dihydro-9-oxa-3-thiabenzo[f]azulen-6-yl]-2-methylpropionic acid]",18.7,60,~1,–
"Cl.O=C(O)Cc1ccc2c(c1)/C(=C\CCN1CCCC1)c1sccc1CO2 [Compound 70, (E)-{4-[3-(Pyrrolidin-1-yl)propylidene]-4,10-dihydro-9-oxa-3-thiabenzo[f]azulen-6-yl}acetic acid hydrochloride]",–,14.3,0.42,51.4
"CN1CCN(CC/C=C2\c3cc(CC(=O)O)ccc3OCc3ccsc32)CC1 [Compound 50, (E)-{4-[3-(4-Methylpiperadin-1-yl)propylidene]-4,10-dihydro-9-oxa-3-thiabenzo[f]azulen-6-yl}acetic acid]",> 80,89.1,1.34,–
"O=C(O)CCc1ccc2c(c1)/C(=C\CCN1CCCC1)c1ccsc1CO2 [Compound 58, (E)-3-{4-[3-(Pyrrolidin-1-yl)propylidene]-4,10-dihydro-9-oxa-1-thiabenzo[f]azulen-6-yl}propionic acid]",110,23,~0.1,–
"O=C(O)Cc1ccc2c(c1)/C(=C\CCN1CCCCC1)c1sccc1CO2 [Compound 34, (E)-{4-[3-(Piperidin-1-yl)propylidene]-4,10-dihydro-9-oxa-3-thiabenzo[f]azulen-6-yl}acetic Acid]",34.8,31.4,~0.3,–
"O=C(O)Cc1ccc2c(c1)/C(=C/CCN1CCCC1)c1sccc1CO2 [Compound 27, (Z)-{4-[3-(Pyrrolidin-1-yl)propylidene]-4,10-dihydro-9-oxa-3-thiabenzo[f]azulen-6-yl}acetic acid]",> 200,70.2,0.226,–
"CN(C)CC/C=C1\c2cc(CC(=O)O)ccc2OCc2sccc21 [Compound 29, (E)-[4-(3-Dimethylaminopropylidene)-4,10-dihydro-9-oxa-1-thiabenzo[f]azulen-6-yl]acetic acid]",23.7,70.7,< 0.1,–
"O=C(O)Cc1ccc2c(c1)/C(=C/CCN1CCOCC1)c1sccc1CO2 [Compound 33, (Z)-{4-[3-(Morpholin-4-yl)propylidene]-4,10-dihydro-9-oxa-3-thiabenzo[f]azulen-6-yl}acetic acid]",21.1,–,~0.3,–
"CN(C)CC/C=C1\c2cc(CC(=O)O)ccc2OCc2ccsc21 [Compound 19, (E)-[4-(3-Dimethylaminopropylidene)-4,10-dihydro-9-oxa-3-thiabenzo[f]azulen-6-yl]acetic acid]",6.08,56.9,0.24,–
